According to patent US8338471B2, “(2,5-dioxoimidazolidin-i-yl)-n-hydroxy-acetamides as metalloproteinase inhibitors” (Medivir AB, priority 2005, dated 2012):

Assays:
Format in all cases: biochemical
[1] = molecular target: T1, recombinant human MMP-3 (Homo sapiens, UniProt P08254); test: MMP-3 enzyme assay (FRET substrate), selectivity versus MMP-12; conditions: fold difference in Ki for MMP-3 compared to MMP-12
T1 construct: purchased R&D Systems
Method: The activity was measured by a continuous detection of increased fluorescence intensity during 12 min. The substrate consisted of a peptide with a fluorescent donor 7-methoxycoumarin (Mca) and a quenching acceptor 2,4-dinitrophenyl group (Dpa), typically Mca-Arg-Pro-Lys-Pro-Val-Glu-Nval-Trp-Arg-Lys(Dnp)-NH2 (R&D Systems, ES002). The cleavage site by MMP-3 is the peptide bond between Glu and Nval. The compounds were tested at a range of concentrations, the enzyme concentration (MMP-3) was fixed at 400 ng/ml and the substrate concentrations was 10 μM. The MMP-3 assay used employs recombinant human MMP-3 (supplied by R&D Systems) in an assay buffer of 50 mM Tris-HCl, 200 mM calcium acetate at pH=7.5. The MMP-3 enzyme was preactivated by dilution to 0.119 mg/ml into 1 mM APMA (p-aminophenylmercuric acetate) followed by incubation at 37° C. for 24 hours. The substrate was prepared at a 100 μM stock solution in DMSO and a 96-well polypropylene plate was used for the reaction mixtures. To each well of the plate was added assay buffer 90.0 μl, enzyme (MMP-3) 0.3 μl and inhibitor 1 μl. The reactions were started by addition of substrate, 10 μl/well, to a total volume of 100 μl/well. The total concentration of DMSO was not above 1%. The assay was performed at ambient temperature. Product fluorescence ([…]) was monitored with a Thermo Labsystems Fluoroskan Ascent plate reader. The Ki was determined by Prism Software.
(§1) The selectivity for MMP-12 over MMP-3 and TACE was evaluated for a representative selection of the compounds of the invention by comparing the Ki figures obtained when tested in the corresponding enzyme assays, such as those described above. The selectivity is presented as the fold difference in Ki for TACE and MMP-3 compared to MMP-12 and is calculated as the ratio Ki(TACE)/KiMMP-12 and Ki(MMP-3)/KiMMP-12 respectively.

[2] = molecular target: T2, recombinant human MMP-12 (Homo sapiens, UniProt P39900); test: MMP-12 enzyme assay (FRET substrate)
T2 construct: purchased R&D Systems; host or cells: mouse myeloma cell line NS-40 (so in the source)
T2 sequence (P39900 106-470): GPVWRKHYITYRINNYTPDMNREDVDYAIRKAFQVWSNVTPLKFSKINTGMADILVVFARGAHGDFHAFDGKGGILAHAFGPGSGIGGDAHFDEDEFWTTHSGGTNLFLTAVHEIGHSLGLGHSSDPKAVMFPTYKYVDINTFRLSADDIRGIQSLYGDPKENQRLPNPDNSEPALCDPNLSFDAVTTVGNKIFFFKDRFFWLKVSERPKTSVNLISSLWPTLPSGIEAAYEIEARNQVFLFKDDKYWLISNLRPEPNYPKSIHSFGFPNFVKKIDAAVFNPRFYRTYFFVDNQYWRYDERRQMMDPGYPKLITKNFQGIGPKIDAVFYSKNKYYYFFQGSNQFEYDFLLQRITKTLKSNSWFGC
Method: A typical MMP-12 enzyme assay employs recombinant human MMP-12 catalytic domain expressed and purified as described by Parkar A. A. et al, (2000), Protein Expression and Purification, 20:152. The purified enzyme can be used to monitor inhibitors of activity as follows: MMP-12 (50 ng/ml final concentration) is incubated for 60 minutes at room temperature with the synthetic substrate Mac-Pro-Cha-Gly-Nva-His-Ala-Dpa-NH2 in assay buffer (0.1M “Tris-HCl” (trade mark) buffer, pH 7.3 containing O.1M NaCl, 20 mM CaCl2, 0.020 mM ZnCl and 0.05% (w/v) “Brij 35” (trade mark) detergent) in the presence (5 concentrations) or absence of inhibitors. Activity is determined by measuring the fluorescence at λex 320 nm and λem 405 nm. Percent inhibition is calculated as follows: % Inhibition is equal to the (Fluorescenceplus inhibitor−Fluorescencebackground); divided by the (Fluorescenceminus inhibitor−Fluorescencebackground);
A favoured assay employs full length recombinant human MMP-12, amino acid residues 1 to 470 (Shapiro et al 1993, J Biol Chem 268:23824-23829) expressed in mouse myeloma cell line NS-40. The purified rhMMP-12 typically has the N terminal sequence L17PLNSSTSLE and an SDS-PAGE apparent molecular mass of approx. 56 kDa. Such proteins are available from R&D Systems, USA as a lyophilised 0.2 um filtered solution of 25 mM MES, 0.15M NaCl, 10 mMCaCl2, 0.15% Brij 35, pH 5.5. Auto-activation of the rhMMP-12 can be achieved by dilution to 0.05 mg/ml into TCNB buffer (50 mMTris, 10 mM CaCl2, 0.15M NaCl, 0.05% Brij 35, pH 7) and incubation at 37 degrees for 30 hours. A preferred buffer for MMP work is 50 mM Tris.HCl, pH 7.5, 200 mM Ca acetate.
Suitable FRET substrates include (7-methoxycoumarin-4-yl)acetyl-Pro-Leu-Gly-Leu-(3-(2,4-dinitrophenoyl)-L-2,3-diaminopropionyl)-Ala-Arg-NH2, commercially available from R&D Systems, USA. Typical specific activities are >500 picomol/min/ug, with rhMMP-12 measured with 10 uM of this substrate, 20 ng activated enzyme in 100 ul TCNB buffer at room temperature.
An alternative general MMP substrate is Dnp-PLGLWAD-R-NH2.
Category A indicates ≦50 nM inhibition, category B indicates 51-200 nM inhibition and category C indicates >200 nM: […]

[3] = molecular target: T3, recombinant human TACE (Homo sapiens, UniProt P78536); test: TACE enzyme assay (FRET substrate), selectivity versus MMP-12; conditions: fold difference in Ki for TACE compared to MMP-12
T3 construct: purchased R&D Systems
T3 sequence (P78536 215-824): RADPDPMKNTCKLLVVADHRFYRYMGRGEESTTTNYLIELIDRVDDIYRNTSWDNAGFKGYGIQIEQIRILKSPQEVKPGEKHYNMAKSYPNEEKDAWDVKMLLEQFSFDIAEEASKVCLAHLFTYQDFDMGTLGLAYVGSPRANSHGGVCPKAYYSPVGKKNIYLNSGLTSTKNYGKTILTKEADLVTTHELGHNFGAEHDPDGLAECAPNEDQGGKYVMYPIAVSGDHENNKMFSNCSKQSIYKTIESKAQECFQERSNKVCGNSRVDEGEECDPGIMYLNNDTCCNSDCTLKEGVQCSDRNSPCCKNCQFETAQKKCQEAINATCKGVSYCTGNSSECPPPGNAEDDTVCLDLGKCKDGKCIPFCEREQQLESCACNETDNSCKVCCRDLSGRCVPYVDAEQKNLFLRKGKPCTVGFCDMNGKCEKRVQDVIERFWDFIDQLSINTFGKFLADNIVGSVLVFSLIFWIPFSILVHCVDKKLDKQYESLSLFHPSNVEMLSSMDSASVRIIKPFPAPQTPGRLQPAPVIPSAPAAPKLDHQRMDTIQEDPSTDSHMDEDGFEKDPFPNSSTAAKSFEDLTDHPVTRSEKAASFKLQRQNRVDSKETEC
Method: The activity was measured by a continuous detection of increased fluorescence intensity during 12 min. The substrate consisted of a peptide with a fluorescent donor 7-methoxycoumarin (Mca) and a quenching acceptor 2,4-dinitrophenyl group (Dpa), typically Mca-P-L-A-Q-A-V-Dpa-R-S-S-S-R-NH2 (R&D Systems, ES003). The cleavage site by TACE is the peptide bond between Ala and Val. The compounds were tested at a range of concentrations while the enzyme and substrate concentrations were fixed. A typical TACE assay employs recombinant human TACE (supplied by R&D Systems) in an assay buffer (25 mM Tris-HCl, pH=9.0, 2.5 μM ZnCl2, 0.005% Brij 35). The enzyme concentration (TACE) used was 100 ng/ml, the substrate was prepared at a 100 μM stock solution in DMSO and a 96-well polypropylene plate was used for the reaction mixtures. To each well of the plate was added assay buffer 90.0 μl, enzyme (TACE) 0.09 μl and inhibitor 1 μl. The reactions were started by addition of substrate 10 μl/well, giving a substrate concentration of 10 μM and a total volume of 100 μl/well. The total concentration of DMSO was not above 1%. The assay was performed at ambient temperature. Product fluorescence ([…]) was monitored with a Thermo Labsystems Fluoroskan Ascent plate reader. The Ki was determined by Prism Software.
as §1

T1 sequence (P08254 100-477): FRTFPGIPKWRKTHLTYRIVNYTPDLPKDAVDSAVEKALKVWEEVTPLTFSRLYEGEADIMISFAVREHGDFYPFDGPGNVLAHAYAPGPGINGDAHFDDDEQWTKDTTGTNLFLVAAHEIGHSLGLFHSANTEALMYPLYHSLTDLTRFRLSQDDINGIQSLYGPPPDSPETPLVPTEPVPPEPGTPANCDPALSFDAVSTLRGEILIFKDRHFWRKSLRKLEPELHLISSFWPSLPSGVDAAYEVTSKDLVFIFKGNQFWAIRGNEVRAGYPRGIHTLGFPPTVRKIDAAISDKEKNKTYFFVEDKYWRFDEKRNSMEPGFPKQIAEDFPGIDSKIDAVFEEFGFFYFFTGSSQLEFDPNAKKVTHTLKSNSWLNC

- Ki(MMP-3)/Ki(MMP-12) [1]: 150
- Ki [2]: ≤ 50 nM
- Ki(TACE)/Ki(MMP-12) [3]: 390
SMILES: CC(C)[C@H](C(=O)NO)N1C(=O)N[C@@H](CCc2ccc(F)cc2)C1=O [Example 38, 2-{4-[2-(4-Fluoro-phenyl)-ethyl]-2,5-dioxoimidazolidin-1-yl}-N-hydroxy-3-methylbutyramide]
